{"source": "patent US10806798B2", "about": "“Compound with effects of thrombolysis, free radical scavenging and thrombus-targeting” (Shanghai Lumosa Therapeutics Co., Ltd., priority 2012, dated 2020)", "system": "rats with stroke", "test": "Successive treatments with 1 μmol/kg Ie starting 6 h after the onset of stroke (Zealonga scores)", "assay_type": "in vivo, SD rats", "method": "The efficacy was represented by neural function scores, and a lower score indicates higher efficacy. A 10% chloral hydrate solution was injected intraperitoneally into male SD rats at a dosage of 400 mg/kg body weight for anesthesia. A longitudinal open incision was made at the center of the neck, and the right common carotid artery trunk was dissected (about 3 cm in length). Carotid external artery branches were each dissected and ligated at the hyoid level, and the carotid internal artery was dissected at the swollen part of the neck. The open incision in the carotid internal artery and the proximal end of the common carotid artery were occluded respectively with noninvasive arterial clips, and the distal end of the carotid external artery was ligated. A catheter containing 0.5 mL thrombus suspension in normal saline was inserted in the carotid external artery trunk. At the same time when the clip on the carotid internal artery was released, the 0.5 mL thrombus suspension in normal saline in the catheter slowly flew from the carotid external artery to its proximal end, and then was injected into the arteries in brain through the carotid internal artery. Subsequently, the proximal end of the carotid artery was ligated, the arterial clips on the carotid internal artery and the common carotid artery were released, and blood flow was restored. After the wound was stitched up, 20,000 IU penicillin was intramuscularly injected for prevention from infection. After 6 h, compound Ie in normal saline (at a dosage of 1 μmol/kg, n=11), urokinase in normal saline (at a dosage of 20000 IU/kg, n=6) or tPA in normal saline (at a dosage of 3 mg/kg, n=6) was infused through the tail vein. Infusion of compound Ie in normal saline through rat tail vein was carried out once per day for 6 consecutive days, observed for 7 days. The rats were compared to themselves each day, and evaluated for the degree of damage in neural function by the Zealonga method. Alternatively, infusion of urokinase in normal saline through rat tail vein was carried out once per day for two consecutive days, the rats were compared to themselves each day, and evaluated for the degree of damage in neural function by the Zealonga method. Alternatively, infusion of tPA in normal saline through rat tail vein was carried out once per day for two consecutive days, the rats were compared to themselves each day, and evaluated for the degree of damage in neural function by the Zealonga method. A score of 0 indicated no sign of loss in neural function, 1 indicated the front limbs on the undamaged side could not stretch out, 2 indicated walking toward the undamaged side, 3 indicated tail-chasing walking in circles toward the undamaged side, 4 indicated involuntary walking with disturbance of consciousness, and 5 indicated death.", "key": {"[1]": {"settings": "Day 1, urokinase 20000 IU/kg once per day from 6 h after stroke onset, n=6"}, "[2]": {"settings": "Day 2, urokinase 20000 IU/kg once per day from 6 h after stroke onset, n=6"}}, "data": [{"substance": "urokinase", "values": [{"measurement": "number of rats scored Score 1", "setting": "[1]", "value": 1, "unit": "rat rats"}, {"measurement": "number of rats scored Score 2", "setting": "[1]", "value": 1, "unit": "rat rats"}, {"measurement": "number of rats scored Score 3", "setting": "[1]", "value": 4, "unit": "rats"}, {"measurement": "number of rats scored Score 0", "setting": "[2]", "value": 1, "unit": "rat rats"}, {"measurement": "number of rats scored Score 2", "setting": "[2]", "value": 1, "unit": "rat rats"}, {"measurement": "rats died", "setting": "out of 6 rats, within 24 h, urokinase 20000 IU/kg each day from 6 h after stroke onset", "value": 4}, {"measurement": "autopsy on the dead rats", "setting": "urokinase 20000 IU/kg each day from 6 h after stroke onset", "value": "hemorrhage in internal organs, particularly severe hemorrhage in lungs"}]}]}
